# From patent US20260007133A1, “HERBICIDAL COMPOSITION COMPRISING AZINE COMPOUNDS” (BASF SE, priority 2022, published 2026)
# Legend:
# Type in all cases: in vivo
# Euphorbia heterophylla [1] = test: Greenhouse pre-emergence (PRE) herbicidal test on EPHHL; settings: PRE; for % activity / % activity solo application: EPHHL; for % activity: 18 DAT
# Summary of the method: (§1)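 Visual 0–100 rating at 20 days after treatment; 0 = normal growth, 100 = no emergence or complete kill of shoots. Pre-emergent application to seeded pots of loamy sand (~3.0% humus), species-dependent temperature 10-25° C or 20-35° C.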
# Lolium multiflorum = test: Greenhouse pre-emergence (PRE) herbicidal test on LOLMU; settings: PRE; for % activity: 18 DAT
# Summary of the method: as §1
# Abutilon theophrasti [2] = test: Greenhouse pre-emergence (PRE) herbicidal test on ABUTH; settings: PRE; for % activity / % activity solo application: ABUTH; for % activity: 18 DAT
# Summary of the method: as §1
# Ambrosia artemisiifolia = test: Greenhouse pre-emergence (PRE) herbicidal test on AMBEL; settings: PRE, 20 DAT; for % activity solo application: AMBEL
# Echinochloa crus-galli [3] = test: Greenhouse post-emergence (POST) herbicidal test on ECHCG; settings: POST; for % activity: ECHCG, 18 DAT
# Summary of the method: (§2)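 For this test, compounds formulated as a 5% by weight emulsion concentrate were diluted into spray liquor and applied post-emergence. Species were kept at 10-25° C or 20-35° C and injury was scored at 20 DAT on a 0–100 scale.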
# Euphorbia heterophylla [4] = test: Greenhouse post-emergence (POST) herbicidal test on EPHHL; settings: POST
# Summary of the method: as §2
# Commelina benghalensis = test: Greenhouse pre-emergence (PRE) herbicidal test on COMBE; settings: PRE; for % activity / % activity solo application: COMBE; for % activity: 18 DAT
# Summary of the method: as §1
# Amaranthus retroflexus [5] = test: Greenhouse pre-emergence (PRE) herbicidal test on AMARE; settings: PRE; for % activity / % activity solo application: AMARE; for % activity: 18 DAT
# Protocol: The culture containers used were plastic pots containing loamy sand with approximately 3.0% of humus as substrate. The seeds of the test plants were sown separately for each species.
# The containers were irrigated gently to promote germination and growth and subsequently covered with transparent plastic hoods until the plants had rooted.
# Depending on the species, the plants were kept at 10-25° C. and 20-35° C., respectively.
# The test period extended over 2 to 4 weeks. During this time, the plants were tended and their response to the individual treatments was evaluated.
# Evaluation was carried out using a scale from 0 to 100. 100 means no emergence of the plants, or complete destruction of at least the above-ground parts, and 0 means no damage or normal course of growth. A good herbicidal activity is given at values of at least 70, and very good herbicidal activity is given at values of at least 85.
# As indicated application was either post emergent (POST) at the respective growth stage (GS) of the weed (BBCH code), or pre-emergent (PRE). […]
# Echinochloa crus-galli [6] = test: Greenhouse pre-emergence (PRE) herbicidal test on ECHCG; settings: PRE; for % activity / % activity solo application: ECHCG; for % activity: 18 DAT
# Setaria viridis = test: Greenhouse pre-emergence (PRE) herbicidal test on SETVI; settings: PRE
# Summary of the method: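 Damage was rated visually on a 0 to 100 scale at 20 days after treatment, where 0 meant normal growth and 100 meant no emergence or complete kill of above-ground parts. Compounds were applied in water to freshly sown loamy-sand pots.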
# Digitaria sanguinalis = test: Greenhouse post-emergence (POST) herbicidal test on DIGSA; settings: POST; for % activity / % activity solo application: DIGSA; for % activity: 18 DAT
# Summary of the method: as §2
# Abutilon theophrasti [7] = test: Greenhouse post-emergence (POST) herbicidal test on ABUTH; settings: POST, ABUTH; for % activity: 18 DAT
# Summary of the method: as §2
# Alopecurus myosuroides = test: Greenhouse pre-emergence (PRE) herbicidal test on ALOMY; settings: PRE, ALOMY; for % activity: 18 DAT; for % activity solo application: 20 DAT
# Summary of the method: as §1
# Amaranthus retroflexus [8] = test: Greenhouse post-emergence (POST) herbicidal test on AMARE; settings: POST, AMARE, Indaziflam solo 1 gai/ha, 18 DAT
# Summary of the method: as §2
# Geranium pusillum = test: Greenhouse post-emergence (POST) herbicidal test on GERPU; settings: POST, GERPU, 18 DAT
# Summary of the method: as §2
smiles,measurement,setting,value
"COCc1cnc(C2=NC(C)(C(C)C)C(=O)N2)c(C(=O)O)c1 (stereo not shown) [Imazamox, imazamox]",pest or weed control at 1 g/ha,"Euphorbia heterophylla [1]; Euphorbia heterophylla, pre-emergence, 480 h, 1 gai/ha, 20 DAT",10%
same,pest or weed control at 2 g/ha,"Euphorbia heterophylla [1]; Euphorbia heterophylla, pre-emergence, 480 h, 2 gai/ha, 20 DAT",15%
same,pest or weed control at 1 g/ha,"Lolium multiflorum; Lolium multiflorum, pre-emergence, 480 h, 1 gai/ha, 20 DAT",0%
same,pest or weed control at 1 g/ha,"Abutilon theophrasti [2]; Abutilon theophrasti, pre-emergence, 480 h, 1 gai/ha, 20 DAT",10%
same,pest or weed control at 1 g/ha,"Ambrosia artemisiifolia; Ambrosia artemisiifolia, pre-emergence, 480 h, 1 gai/ha",0%
same,pest or weed control at 2 g/ha,"Ambrosia artemisiifolia; Ambrosia artemisiifolia, pre-emergence, 480 h, 2 gai/ha, read-out: % activity",0%
same,pest or weed control at 2 g/ha,"Echinochloa crus-galli [3]; Echinochloa crus-galli, post-emergence, 480 h, 2 gai/ha, 20 DAT",55%
same,pest or weed control at 1 g/ha,"Euphorbia heterophylla [4]; Euphorbia heterophylla, post-emergence, 480 h, 1 gai/ha, 20 DAT",10%
same,pest or weed control at 2 g/ha,"Euphorbia heterophylla [4]; Euphorbia heterophylla, post-emergence, 480 h, 2 gai/ha, 20 DAT",10%
same,pest or weed control at 1 g/ha,"Commelina benghalensis; Commelina benghalensis, pre-emergence, 480 h, 1 gai/ha, 20 DAT",0%
same,pest or weed control at 2 g/ha,"Commelina benghalensis; Commelina benghalensis, pre-emergence, 480 h, 2 gai/ha, 20 DAT, read-out: % activity",0%
same,pest or weed control at 2 g/ha,"Amaranthus retroflexus [5]; Amaranthus retroflexus, pre-emergence, 480 h, 2 gai/ha, 20 DAT",25%
same,pest or weed control at 1 g/ha,"Echinochloa crus-galli [6]; Echinochloa crus-galli, pre-emergence, 480 h, 1 gai/ha, 20 DAT",0%
same,pest or weed control at 2 g/ha,"Setaria viridis; Setaria viridis, pre-emergence, 480 h, 2 gai/ha, 20 DAT",5%
same,pest or weed control at 2 g/ha,"Digitaria sanguinalis; Digitaria sanguinalis, post-emergence, 480 h, 2 gai/ha, 20 DAT",55%
"Cc1ccc2c(c1)[C@H](Nc1nc(N)nc(C(C)F)n1)[C@@H](C)C2 (stereo partly shown) [Indaziflam, indaziflam]",% activity,Euphorbia heterophylla [1]; Indaziflam solo 1 gai/ha,10%
same,% activity,Euphorbia heterophylla [1]; Indaziflam solo 4 gai/ha,5%
same,% activity,Abutilon theophrasti [7]; Indaziflam solo 2 gai/ha,15%
same,% activity,Abutilon theophrasti [7]; Indaziflam solo 4 gai/ha,30%
same,% activity,Alopecurus myosuroides; Indaziflam solo 1 gai/ha,10%
same,% activity,Alopecurus myosuroides; Indaziflam solo 4 gai/ha,75%
same,% activity,"Lolium multiflorum; LOLMU, Indaziflam solo 1 gai/ha",10%
same,% activity,"Lolium multiflorum; LOLMU, Indaziflam solo 2 gai/ha",10%
same,% activity,"Lolium multiflorum; LOLMU, Indaziflam solo 4 gai/ha",40%
same,% activity,Abutilon theophrasti [2]; Indaziflam solo 1 gai/ha,0%
same,% activity,Abutilon theophrasti [2]; Indaziflam solo 4 gai/ha,25%
same,% activity,Echinochloa crus-galli [3]; Indaziflam solo 1 gai/ha,0%
same,% activity,Echinochloa crus-galli [3]; Indaziflam solo 2 gai/ha,0%
same,% activity,Echinochloa crus-galli [3]; Indaziflam solo 4 gai/ha,20%
same,% activity,Echinochloa crus-galli [3]; Indaziflam solo 8 gai/ha,60%
same,% activity,"Euphorbia heterophylla [4]; EPHHL, Indaziflam solo 4 gai/ha, 18 DAT",40%
same,% activity,Amaranthus retroflexus [8],65%
same,% activity,Geranium pusillum; Indaziflam solo 4 gai/ha,50%
same,% activity,Geranium pusillum; Indaziflam solo 8 gai/ha,50%
same,% activity,Commelina benghalensis; Indaziflam solo 1 gai/ha,20%
same,% activity,Commelina benghalensis; Indaziflam solo 2 gai/ha,10%
same,% activity,Commelina benghalensis; Indaziflam solo 8 gai/ha,40%
same,% activity,Amaranthus retroflexus [5]; Indaziflam solo 1 gai/ha,10%
same,% activity,Amaranthus retroflexus [5]; Indaziflam solo 4 gai/ha,50%
same,% activity,Echinochloa crus-galli [6]; Indaziflam solo 1 gai/ha,30%
same,% activity,Echinochloa crus-galli [6]; Indaziflam solo 4 gai/ha,85%
same,% activity,Echinochloa crus-galli [6]; Indaziflam solo 8 gai/ha,80%
same,% activity,"Setaria viridis; SETVI, Indaziflam solo 1 gai/ha, 18 DAT",40%
same,% activity,Digitaria sanguinalis; Indaziflam solo 1 gai/ha,0%
same,% activity,Digitaria sanguinalis; Indaziflam solo 2 gai/ha,5%
same,% activity,Digitaria sanguinalis; Indaziflam solo 8 gai/ha,20%
"FC(F)c1cc(-c2c(Cl)cccc2Oc2ncc(Cl)cn2)on1 [Rimisoxafen, rimisoxafen]",% activity solo application,"Euphorbia heterophylla [1]; 8 gai/ha, 20 DAT",0%
same,% activity solo application,"Euphorbia heterophylla [1]; 16 gai/ha, 20 DAT",0%
same,% activity solo application,"Abutilon theophrasti [7]; 16 gai/ha, 20 DAT",80%
same,% activity solo application,Alopecurus myosuroides; 4 gai/ha,0%
same,% activity solo application,Alopecurus myosuroides; 8 gai/ha,0%
same,% activity solo application,Alopecurus myosuroides; 16 gai/ha,0%
same,% activity solo application,Alopecurus myosuroides; 32 gai/ha,0%
same,% activity solo application,"Lolium multiflorum; LOLMU, 8 gai/ha, 20 DAT",0%
same,% activity solo application,"Abutilon theophrasti [2]; 4 gai/ha, 20 DAT",0%
same,% activity solo application,"Abutilon theophrasti [2]; 8 gai/ha, 20 DAT",5%
same,% activity solo application,"Abutilon theophrasti [2]; 16 gai/ha, 20 DAT",5%
same,% activity solo application,"Abutilon theophrasti [2]; 32 gai/ha, 20 DAT",35%
same,% activity solo application,Ambrosia artemisiifolia; 4 gai/ha,0%
same,% activity solo application,Ambrosia artemisiifolia; 8 gai/ha,0%
same,% activity solo application,Ambrosia artemisiifolia; 16 gai/ha,0%
same,% activity solo application,Ambrosia artemisiifolia; 32 gai/ha,0%
same,% activity solo application,"Euphorbia heterophylla [4]; EPHHL, 16 gai/ha, 20 DAT",15%
same,% activity solo application,"Commelina benghalensis; 4 gai/ha, 20 DAT",0%
same,% activity solo application,"Commelina benghalensis; 8 gai/ha, 20 DAT",10%
same,% activity solo application,"Commelina benghalensis; 16 gai/ha, 20 DAT",0%
same,% activity solo application,"Commelina benghalensis; 32 gai/ha, 20 DAT",30%
same,% activity solo application,"Amaranthus retroflexus [5]; 8 gai/ha, 20 DAT",25%
same,% activity solo application,"Amaranthus retroflexus [5]; 16 gai/ha, 20 DAT",75%
same,% activity solo application,"Echinochloa crus-galli [6]; 4 gai/ha, 20 DAT",0%
same,% activity solo application,"Echinochloa crus-galli [6]; 8 gai/ha, 20 DAT",0%
same,% activity solo application,"Echinochloa crus-galli [6]; 16 gai/ha, 20 DAT",0%
same,% activity solo application,"Echinochloa crus-galli [6]; 32 gai/ha, 20 DAT",0%
same,% activity solo application,"Setaria viridis; SETVI, 8 gai/ha, 20 DAT",35%
same,% activity solo application,"Setaria viridis; SETVI, 16 gai/ha, 20 DAT",35%
same,% activity solo application,"Digitaria sanguinalis; 4 gai/ha, 20 DAT",5%
same,% activity solo application,"Digitaria sanguinalis; 8 gai/ha, 20 DAT",5%
same,% activity solo application,"Digitaria sanguinalis; 16 gai/ha, 20 DAT",10%
same,% activity solo application,"Digitaria sanguinalis; 32 gai/ha, 20 DAT",20%
